≈ marks a conversion by molar mass, not a printed value. Calls of active or inactive are those of the source. The calls are words filed in the database; no cut-off is given here.
Key:
Acanthamoeba castellanii [1] = assay: Anti-amoebic activity against Acanthamoeba castellanii genotype T4 (ATCC 50492) cysts assessed as reduction in excystation incubated for 24 to 72 hrs by hemocytometer analysis; format: functional; settings: time 24-72 hrs
Acanthamoeba castellanii [2] = assay: Anti-amoebic activity against Acanthamoeba castellanii genotype T4 (ATCC 50492) trophozoites assessed as reduction in amoebae viability at 100 ug/ml incubated for 24 hrs by trypan blue exclusion test; format: functional
Acanthamoeba castellanii [3] = assay: Anti-amoebic activity against Acanthamoeba castellanii genotype T4 (ATCC 50492) trophozoites infected in human HCT-116 cells assessed as protection against amoebae infection at 100 ug/ml amoebae pretreated with compound for 2 hrs followed by host cell infection and measured after 24 hrs by LDH assay; format: functional, organism-based; settings: dose 100.0 µg/ml, time 26.0 hrs
Acanthamoeba castellanii [4] = assay: Anti-amoebic activity against Acanthamoeba castellanii genotype T4 (ATCC 50492) trophozoites assessed as reduction in encystation at 100 ug/ml incubated for 48 hrs by hemocytometer analysis; format: functional, organism-based; settings: dose 100.0 µg/ml
Acanthamoeba castellanii [5] = assay: Anti-amoebic activity against Acanthamoeba castellanii genotype T4 (ATCC 50492) cysts assessed as reduction in excystation at 100 ug/ml incubated for 24 to 72 hrs by hemocytometer analysis; format: functional; settings: time 24-72 hrs
Acanthamoeba castellanii [6] = assay: Anti-amoebic activity against Acanthamoeba castellanii genotype T4 (ATCC 50492) trophozoites assessed as reduction in amoebae viability incubated for 24 hrs by trypan blue exclusion test; format: functional
HCT-116 [7] = assay: Cytotoxicity against human HCT-116 cells at 100 ug/ml incubated for 24 hrs by LDH assay; format: toxicity, cell-based; settings: hct-116, 24 h, at 100 µg/mL
HCT-116 [8] = assay: Cytotoxicity against human HCT-116 cells at 5X excystation MIC50 concentration incubated for 24 hrs by LDH assay; format: toxicity, cell-based; settings: hct-116, 24 h

SMILES	MIC50 (Acanthamoeba castellanii [1]) [µg/mL]	inhibition at 100 µg/mL (Acanthamoeba castellanii [2]) [%]	Activity (Acanthamoeba castellanii [3])	Activity (Acanthamoeba castellanii [4])	inhibition at 100 µg/mL (Acanthamoeba castellanii [5]) [%]	MIC50 (Acanthamoeba castellanii [6]) [µg/mL]	Activity (HCT-116 [7]) [%]	Activity (HCT-116 [8]) [%]
CC(C)(C)c1ccc(-c2nnc(SCc3cccc(C(F)(F)F)c3)n2-c2ccccc2)cc1	85.5 (≈ 183 µM)	17	inactive	inactive	78	239 (≈ 512 µM)		
Cc1ccc(-n2c(SCc3cccc(C(F)(F)F)c3)nnc2-c2ccc(C(C)(C)C)cc2)cc1	19.5 (≈ 40.6 µM)	27	inactive	inactive	86	180 (≈ 373 µM)	35	
CC(C)c1ccc(-c2nnc(SCc3cccc(C(F)(F)F)c3)n2-c2cccc(Br)c2)cc1	32 (≈ 60.1 µM)	34	inactive	inactive	77	125 (≈ 235 µM)		17
CC(C)(C)c1ccc(-c2nnc(SCc3cccc(C(F)(F)F)c3)n2-c2cccc(Cl)c2)cc1	80.6 (≈ 160 µM)	25	inactive	inactive	78	144 (≈ 287 µM)	35	

Source: ChEMBL document CHEMBL5532686, “Azole-based compounds as potential anti-Acanthamoeba agents” (RSC Med Chem, 2024)
